In the experiment the target is T1, CblC (Homo sapiens, UniProt Q9Y4U1).
T1 sequence (Q9Y4U1 1-282): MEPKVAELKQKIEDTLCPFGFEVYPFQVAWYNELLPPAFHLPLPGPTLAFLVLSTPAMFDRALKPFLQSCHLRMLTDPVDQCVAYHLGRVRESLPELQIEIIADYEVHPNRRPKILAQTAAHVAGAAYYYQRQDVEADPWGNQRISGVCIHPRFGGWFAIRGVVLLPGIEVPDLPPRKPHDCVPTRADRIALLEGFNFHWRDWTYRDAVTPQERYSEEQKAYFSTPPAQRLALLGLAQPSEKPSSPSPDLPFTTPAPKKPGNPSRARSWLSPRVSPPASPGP
Kind of experiment: isothermal titration calorimetry. The conditions noted are these: in the presence of glutathione (GSH); base-off binding. On the technique in general: Isothermal titration calorimetry measures the heat released or taken up as one component is titrated into another.

A word on the Kd: it is the concentration at which binding is half-saturated. For PhEtyCbl [compound 2], the dissociation constant Kd came out at 30 nM.

These data come from PMC5681751 (Angewandte Chemie (International ed. in English), 2017).
